In US20110263649A1, “CRYSTALLINE FORM OF LENALIDOMIDE AND A PROCESS FOR ITS PREPARATION” (GENERICS [UK] LIMITED, priority 2008, published 2011):
Read-outs that look alike come from different tables or passages of the source.

How the values were obtained:
[1] = as disclosed in WO 2005/023192; cited from earlier work
[2] = aqueous solubility of lenalidomide crystalline forms; conditions: forms prepared and tested by the inventors
[3] = as indicated in WO 2005/023192; cited from earlier work

aqueous solubility [2] | SMILES | weight loss upon storage [1] | aqueous solubility [3]
 | Nc1cccc2c1CN(C1CCC(=O)NC1=O)C2=O (stereo not shown) [form E, lenalidomide] | the greatest weight loss upon storage | 
High solubility in aqueous medium | Nc1cccc2c1CN(C1CCC(=O)NC1=O)C2=O (stereo not shown) [novel crystalline form, 3-(4-amino-1-oxo-1,3-dihydro-isoindol-2-yl)-piperidine-2,6-dione] |  | 
poor aqueous solubility | Nc1cccc2c1CN(C1CCC(=O)NC1=O)C2=O (stereo not shown) [polymorphic mixture, lenalidomide] |  | poorly soluble in water
